Measurements reported in patent US20240124451A1, “PHTHALAZINE DERIVATIVES USEFUL AS INHIBITORS OF NOD-LIKE RECEPTOR PROTEIN 3” (Merck Sharp & Dohme LLC, priority 2022, published 2024).

Target: T1, NLRP3 inflammasome (Homo sapiens, UniProt Q96P20)
T1 construct: host or cells: THP-1 human monocytic cells, PMA-treated, stimulated with gramicidin
Test: ASC-SPECK formation in THP-1 cells after gramicidin stimulation (NLRP3 inflammasome activation)
Assay type: cell-based
Conditions: PMA-treated human monocytic THP-1 cells, compound 1 h before 12.5 ug/ml gramicidin, 3 h, ASC SPECK imaging; read-out: EC50 (nM) for Examples that inhibit NLRP3 inflammasome activation
Description: The ability of compounds to inhibit NLRP3 inflammasome activation was determined in vitro by monitoring formation of the ASC-SPECK in human monocytic THP-1 cells after stimulation. THP-1 cells (ATCC catalog #TIB-202) were maintained in complete growth media containing Roswell Park Memorial Institute RPMI (ATCC catalog #30-2001), 10% heat inactivated fetal bovine serum, 1× penicillin/streptomycin and 0.05 mM 2-mercaptoethanol. At the start of the assay, undifferentiated THP-1 cells were plated at a density of 20,000 cells per well in a 384-well plate (Poly-D-lysine coated Cell Carrier Ultra microplate, Perkin Elmer catalog #6057500) in complete growth media supplemented with 10 ng/ml phorbol 12-myristate 13-acetate (PMA; Sigma catalog #P8139), and then incubated overnight. The next day, media was replaced with assay media [RPMI (Gibco catalog #11875-093), 0.01% bovine serum albumin (BSA)]. Compounds were serially diluted in DMSO and then added to wells one hour prior to the addition of 12.5 ug/ml Gramicidin (Enzo Lifescience, catalog #ALX-350-233-M005). All incubations were carried out at 37° C. (5% CO2/95% air). Following a 3-hour treatment with gramicidin, cells are fixed with 4% paraformaldehyde and stored at 4° C. until immunofluorescence staining.
Immunofluorescence staining: Anti-ASC antibody (MBL catalog #D086-3) was desalted and labeled with Alexa 488 antibody labeling kit (Thermo catalog #A20181) prior to use as described below. After fixation, the following steps were carried out at room temperature. Cells were first permeabilized with 0.3% Triton X-100 in phosphate-buffered saline (PBS) for 15 minutes and then incubated in blocking buffer containing 5% goat serum, 0.3% tween-20 and 0.03% sodium azide in PBS for 1 hour. Cells were stained with a mixture of ASC-Alexa 488 antibody (diluted 1:200 in blocking buffer) and nuclear stain DRAQ5 (1:5000 in blocking buffer, Thermo catalog #62251) in blocking buffer for 1 hour. Following a wash with 0.3% Tween-20 in PBS, plates were imaged with an Opera Phenix High Content Screening System. The number of DRAQ5 positive cells containing ASC SPECKS were quantified in each well.
Data analysis: EC50 values were calculated by standard curve-fitting analysis using an internally developed program in TIBCO Spotfire software.

T1 sequence (Q96P20 whole entry): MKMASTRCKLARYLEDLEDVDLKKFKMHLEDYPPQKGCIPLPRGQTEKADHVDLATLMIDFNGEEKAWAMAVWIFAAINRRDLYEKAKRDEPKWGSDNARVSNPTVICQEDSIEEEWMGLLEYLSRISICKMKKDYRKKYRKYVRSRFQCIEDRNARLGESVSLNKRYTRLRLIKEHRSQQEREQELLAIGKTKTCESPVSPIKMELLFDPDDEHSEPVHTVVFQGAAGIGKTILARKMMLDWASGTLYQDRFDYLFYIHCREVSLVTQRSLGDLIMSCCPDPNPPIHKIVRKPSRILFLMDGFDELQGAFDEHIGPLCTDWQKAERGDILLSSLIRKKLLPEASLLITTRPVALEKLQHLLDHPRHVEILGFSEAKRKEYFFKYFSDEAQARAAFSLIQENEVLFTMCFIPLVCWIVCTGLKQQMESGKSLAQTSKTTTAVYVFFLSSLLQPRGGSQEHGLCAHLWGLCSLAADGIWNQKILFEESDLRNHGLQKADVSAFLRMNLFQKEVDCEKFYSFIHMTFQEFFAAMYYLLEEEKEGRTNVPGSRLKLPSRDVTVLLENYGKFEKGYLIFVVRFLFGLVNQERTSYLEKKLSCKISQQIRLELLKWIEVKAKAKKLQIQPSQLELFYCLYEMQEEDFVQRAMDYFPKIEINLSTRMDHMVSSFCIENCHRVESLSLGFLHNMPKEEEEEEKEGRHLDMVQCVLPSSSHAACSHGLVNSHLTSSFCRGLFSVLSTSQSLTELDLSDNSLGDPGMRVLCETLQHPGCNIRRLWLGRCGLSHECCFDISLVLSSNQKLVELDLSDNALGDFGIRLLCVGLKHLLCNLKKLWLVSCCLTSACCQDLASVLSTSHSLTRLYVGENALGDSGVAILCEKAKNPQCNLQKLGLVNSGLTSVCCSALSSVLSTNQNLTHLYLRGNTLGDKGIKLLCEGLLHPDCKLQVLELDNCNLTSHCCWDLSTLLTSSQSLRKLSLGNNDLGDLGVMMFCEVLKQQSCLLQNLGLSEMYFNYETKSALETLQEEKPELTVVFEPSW

Row | SMILES | EC50 [nM]
1 | C[C@]1(O)CCN(c2nnc(-c3ccc(C(F)(F)F)cc3O)c3cccnc23)C1 [Example 22, (S)-1-(5-(2-hydroxy-4-(trifluoromethyl)phenyl)pyrido[2,3-d]-pyridazin-8-yl)-3-methylpyrrolidin-3-ol] | 124
2 | O=C1COC2(CCN(c3nnc(-c4ccc(C(F)(F)F)cc4O)c4cccnc34)CC2)CN1 [Example 32, 9-(5-(2-hydroxy-4-(trifluoromethyl)phenyl)pyrido [2,3-d]pyridazin-8-yl)-1-oxa-4,9-diazaspiro[5.5]undecan-3-one] | 330
3 | Oc1cc(C(F)(F)F)ccc1-c1nnc(N2CCC3(CCCO3)C2)c2ncccc12 (racemic) [Example 29, (R and S)-2-(8-(1-oxa-7-azaspiro[4.4]nonan-7-yl)pyrido[2,3-d]pyridazin-5-yl)-5-(trifluoromethyl)phenol] | 353
4 | Cc1ccc2c(-c3ccc(C(F)(F)F)cc3O)nnc(N3CC[C@](C)(O)C3)c2n1 [Example 10, (S)-1-(5-(2-hydroxy-4-(trifluoromethyl)phenyl)-2-methylpyrido[2,3-d]pyridazin-8-yl)-3-methylpyrrolidin-3-ol] | 60
5 | C[C@@H]1CN(c2nnc(-c3ccc(C(F)(F)F)cc3O)c3cnccc23)C[C@H](C)[C@H]1O [Example 19, (3S,4r,5R)-1-(4-(2-hydroxy-4-(trifluoromethyl)phenyl)pyrido[3,4-d]pyridazin-1-yl)-3,5-dimethylpiperidin-4-ol] | 68
6 | Cc1ccc2c(-c3ccc(C(F)(F)F)cc3O)nnc(N3C[C@@H](C)O[C@@H](C)C3)c2c1 (single isomer, unassigned) [Example 20, 2-(4-((cis)-2,6-dimethylmorpholino)-6-methylphthalazin-1-yl)-5-(trifluoromethyl)phenol] | 33
7 | O=C1CCC2(CCN(c3nnc(-c4ccc(C(F)(F)F)cc4O)c4cccnc34)CC2)O1 [Example 42, 8-(5-(2-hydroxy-4-(trifluoromethyl)phenyl)pyrido [2,3-d]pyridazin-8-yl)-1-oxa-8-azaspiro[4.5]decan-2-one] | 952
8 | CC(C)(O)[C@H]1CCN(c2nnc(-c3ccc(C(F)(F)F)cc3O)c3cccnc23)C1 [Example 50, (S)-2-(8-(3-(2-hydroxypropan-2-yl)pyrrolidin-1-yl)pyrido[2,3-d]pyridazin-5-yl)-5-(trifluoromethyl)phenol] | 1330
9 | C[C@@H]1CN(c2nnc(-c3ccc(C(F)(F)F)cc3OC(F)F)c3cccnc23)C[C@H](C)O1 [Example 3, (cis)-4-(5-(2-(difluoromethoxy)-4-(trifluoromethyl)phenyl)pyrido[2,3-d]pyridazin-8-yl)-2,6-dimethylmorpholine] | 891
10 | CC(=O)N1CCC2(CCN(c3nnc(-c4ccc(C(F)(F)F)cc4O)c4cccnc34)CC2)C1 [Example 35, 1-(8-(5-(2-hydroxy-4-(trifluoromethyl)phenyl)pyrido [2,3-d]pyridazin-8-yl)-2,8-diazaspiro[4.5]decan-2-yl)ethan-1-one] | 420
11 | C[C@]1(O)CCN(c2nnc(-c3ccc(C(F)(F)F)cc3O)c3cnccc23)C1 (single isomer, unassigned) [Example 1] | 356
12 | C[C@]1(O)CCN(c2nnc(-c3ccc(C(F)(F)F)cc3O)c3ccc(C(F)F)nc23)C1 [Example 56] | 90
13 | Oc1cc(C(F)(F)F)ccc1-c1nnc(N2CCC(O)(C3CC3)C2)c2ncccc12 (racemic) [Example 45, (R and S)-3-cyclopropyl-1-(5-(2-hydroxy-4-(trifluoromethyl)phenyl)pyrido [2,3-d]pyridazin-8-yl)pyrrolidin-3-ol] | 1180
14 | C[C@@H]1CN(c2nnc(-c3ccc(C(F)(F)F)cc3O)c3ncccc23)C[C@H](C)O1 [Example 6, 2-(5-((cis)-2,6-dimethylmorpholino)pyrido[2,3-d]pyridazin-8-yl)-5-(trifluoromethyl)phenol] | 1850
15 | CN1CC[C@H]2CCN(c3nnc(-c4ccc(C(F)(F)F)cc4O)c4cccnc34)[C@H]2C1 [Example 23, 2-(8-((3aS,7aR)-6-methyloctahydro-1H-pyrrolo[2,3-c]pyridin-1-yl)pyrido[2,3-d]pyridazin-5-yl)-5-(trifluoromethyl)phenol] | 5

More lines, in order of falling EC50, values ahead:

Row | EC50 [nM] | SMILES
16 | 3970 | Cc1cc(C(F)(F)F)ccc1-c1nnc([C@H]2C[C@@H](C)O[C@@H](C)C2)c2ccccc12 [Example 53, 1-((2R,4r,6S)-2,6-dimethyltetrahydro-2H-pyran-4-yl)-4-(2-methyl-4-(trifluoromethyl)phenyl)phthalazine]
17 | 1600 | Oc1cc(C(F)(F)F)ccc1-c1nnc(N2CCC(O)(c3ccccc3)C2)c2ncccc12 (racemic) [Example 38, (R and S)-1-(5-(2-hydroxy-4-(trifluoromethyl)phenyl)pyrido [2,3-d]pyridazin-8-yl)-3-phenylpyrrolidin-3-ol]
18 | 750 | C[C@@H]1CN(c2nnc(-c3ccc4occc4c3)c3ccncc23)C[C@H](C)O1 [Example 11, (cis)-4-(1-(benzofuran-5-yl)pyrido[3,4-d]pyridazin-4-yl)-2,6-dimethylmorpholine]
19 | 742 | CN1CC2(CCN(c3nnc(-c4ccc(C(F)(F)F)cc4O)c4cccnc34)CC2)OC1=O [Example 36, 8-(5-(2-hydroxy-4-(trifluoro-methyl)phenyl)pyrido[2,3-d]-pyridazin-8-yl)-3-methyl-1-oxa-3,8-diazaspiro[4.5]decan-2-one]
20 | 734 | Cc1cccc2c(-c3ccc(C(F)(F)F)cc3O)nnc(N3C[C@@H](C)O[C@@H](C)C3)c12 [Example 14, 2-(4-((cis)-2,6-dimethylmorpholino)-5-methylphthalazin-1-yl)-5-(trifluoromethyl)phenol]
21 | 621 | C[C@]1(O)CCN(c2nnc(-c3ccc(C(F)(F)F)cc3O)c3ccc(C(F)(F)F)nc23)C1 [Example 12, (S)-1-(5-(2-hydroxy-4-(trifluoromethyl)phenyl)-2-(trifluoromethyl)pyrido[2,3-d]pyridazin-8-yl)-3-methylpyrrolidin-3-ol]
22 | 515 | C[C@@H]1CN(c2nnc(-c3ccc(C(F)(F)F)cc3O)c3ccnnc23)C[C@H](C)O1 [Example 8, 2-(8-((cis)-2,6-dimethylmorpholino)pyridazino[4,5-c]pyridazin-5-yl)-5-(trifluoromethyl)phenol]
23 | 447 | Oc1cc(C(F)(F)F)ccc1-c1nnc(N2CCC(O)(C(F)F)C2)c2ncccc12 (racemic) [Example 28, (R and S)-3-(difluoromethyl)-1-(5-(2-hydroxy-4-(trifluoromethyl)phenyl)pyrido [2,3-d]pyridazin-8-yl)pyrrolidin-3-ol]
24 | 411 | CC1(CO)CCN(c2nnc(-c3ccc(C(F)(F)F)cc3O)c3cccnc23)C1 (racemic) [Example 48, (R and S)-2-(8-(3-(hydroxymethyl)-3-methylpyrrolidin-1-yl)pyrido[2,3-d]pyridazin-5-yl)-5-(trifluoromethyl)phenol]
25 | 65 | CC1CN(c2nnc(-c3ccc(C(F)(F)F)cc3O)c3cccnc23)CC(CO)O1 (single isomer, unassigned) [Example 51, 2-(8-((2R,6R or 2S,6S)-2-(hydroxymethyl)-6-methylmorpholino)pyrido[2,3-d]pyridazin-5-yl)-5-(trifluoromethyl) phenol]
